Molecular target: Receptor tyrosine-protein kinase erbB-2 (Homo sapiens, UniProt P04626);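 also: inhibition of HER2 kinase enzyme activity, measured with Poly(Glu:Tyr) as the phosphorylation substrate; in other assays of this panel Not Active means under 50% inhibition at 10 µM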
Assay: biochemical
Type: cell-based, Insect cells
Conditions: insect cells

Chain of Receptor tyrosine-protein kinase erbB-2 (P04626 whole entry): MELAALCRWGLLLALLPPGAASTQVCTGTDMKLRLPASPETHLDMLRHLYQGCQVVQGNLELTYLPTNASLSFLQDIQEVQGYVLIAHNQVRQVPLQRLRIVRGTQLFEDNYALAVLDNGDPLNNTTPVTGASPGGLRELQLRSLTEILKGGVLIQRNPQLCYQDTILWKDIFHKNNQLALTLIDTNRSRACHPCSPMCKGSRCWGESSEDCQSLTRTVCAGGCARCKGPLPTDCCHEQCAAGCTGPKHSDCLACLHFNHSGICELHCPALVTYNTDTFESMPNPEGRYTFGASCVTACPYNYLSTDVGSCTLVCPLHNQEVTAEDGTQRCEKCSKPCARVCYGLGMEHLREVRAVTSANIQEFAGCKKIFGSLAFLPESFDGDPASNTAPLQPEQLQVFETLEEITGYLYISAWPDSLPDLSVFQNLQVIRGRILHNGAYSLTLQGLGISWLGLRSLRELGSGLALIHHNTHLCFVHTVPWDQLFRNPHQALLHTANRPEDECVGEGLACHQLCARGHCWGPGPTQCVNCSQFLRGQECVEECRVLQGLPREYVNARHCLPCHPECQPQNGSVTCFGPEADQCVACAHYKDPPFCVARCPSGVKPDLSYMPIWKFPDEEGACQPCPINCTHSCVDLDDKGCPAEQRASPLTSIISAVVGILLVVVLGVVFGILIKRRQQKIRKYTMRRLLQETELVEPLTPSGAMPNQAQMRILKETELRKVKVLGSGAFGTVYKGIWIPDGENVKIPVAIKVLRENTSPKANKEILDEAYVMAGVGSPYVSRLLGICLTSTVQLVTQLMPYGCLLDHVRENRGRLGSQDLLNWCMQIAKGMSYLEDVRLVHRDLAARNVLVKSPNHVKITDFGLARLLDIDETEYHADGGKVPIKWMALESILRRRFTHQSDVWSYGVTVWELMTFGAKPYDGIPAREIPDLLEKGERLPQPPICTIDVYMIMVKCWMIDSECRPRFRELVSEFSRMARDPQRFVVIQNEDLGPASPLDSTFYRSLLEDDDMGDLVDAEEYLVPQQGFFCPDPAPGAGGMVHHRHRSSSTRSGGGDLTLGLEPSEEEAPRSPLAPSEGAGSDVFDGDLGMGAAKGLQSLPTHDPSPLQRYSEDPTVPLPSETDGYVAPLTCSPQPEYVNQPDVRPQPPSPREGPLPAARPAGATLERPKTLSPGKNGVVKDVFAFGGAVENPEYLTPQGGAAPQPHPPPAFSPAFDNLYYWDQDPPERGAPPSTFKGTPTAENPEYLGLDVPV

SMILES	IC50
Cc1ccc(S(=O)(=O)NC(=O)NN2CC3CCCC3C2)cc1 (stereo not given) [GLICLAZIDE]	Not Active
CC(C)Cc1ccc(C(C)C(=O)O)cc1 (stereo not given) [IBUPROFEN]	Not Active
COc1ccc2c(c1)c(CC(=O)O)c(C)n2C(=O)c1ccc(Cl)cc1 [INDOMETHACIN]	Not Active
CCc1c2c(nc3ccc(OC(=O)N4CCC(N5CCCCC5)CC4)cc13)-c1cc3c(c(=O)n1C2)COC(=O)[C@]3(O)CC [IRINOTECAN]	Not Active

Same assay, conditions: read-out: IC50

SMILES	IC50 [nM]
COc1cccc2c1C(=O)c1c(O)c3c(c(O)c1C2=O)C[C@@](O)(C(=O)CO)C[C@@H]3O[C@H]1C[C@H](N)[C@H](O)[C@H](C)O1 [DOXORUBICIN]	2490

Molecular target: Insulin receptor (Rattus norvegicus, UniProt P15127); also: in other assays of this panel Not Active means under 50% inhibition at 10 µM
Sequence (P15127 27-759 limits assumed): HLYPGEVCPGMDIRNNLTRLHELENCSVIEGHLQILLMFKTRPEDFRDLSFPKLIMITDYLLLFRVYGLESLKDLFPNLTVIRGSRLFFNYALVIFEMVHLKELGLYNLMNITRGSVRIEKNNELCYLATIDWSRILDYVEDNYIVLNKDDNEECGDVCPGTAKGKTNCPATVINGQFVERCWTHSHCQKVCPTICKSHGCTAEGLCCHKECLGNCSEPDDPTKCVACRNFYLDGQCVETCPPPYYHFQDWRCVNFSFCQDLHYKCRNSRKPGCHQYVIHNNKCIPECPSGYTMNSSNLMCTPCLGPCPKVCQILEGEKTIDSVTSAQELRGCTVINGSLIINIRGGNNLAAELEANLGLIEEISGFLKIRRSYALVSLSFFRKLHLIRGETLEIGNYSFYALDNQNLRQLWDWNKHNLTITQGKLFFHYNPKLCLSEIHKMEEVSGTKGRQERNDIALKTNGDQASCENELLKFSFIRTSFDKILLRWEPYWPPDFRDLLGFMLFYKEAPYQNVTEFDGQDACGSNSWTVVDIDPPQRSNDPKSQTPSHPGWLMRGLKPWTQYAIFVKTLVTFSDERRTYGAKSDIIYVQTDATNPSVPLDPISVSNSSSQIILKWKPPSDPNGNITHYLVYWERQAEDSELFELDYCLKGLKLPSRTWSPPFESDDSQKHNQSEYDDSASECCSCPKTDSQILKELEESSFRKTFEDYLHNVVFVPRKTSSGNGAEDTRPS
Sequence (P15127 764-1383 limits assumed): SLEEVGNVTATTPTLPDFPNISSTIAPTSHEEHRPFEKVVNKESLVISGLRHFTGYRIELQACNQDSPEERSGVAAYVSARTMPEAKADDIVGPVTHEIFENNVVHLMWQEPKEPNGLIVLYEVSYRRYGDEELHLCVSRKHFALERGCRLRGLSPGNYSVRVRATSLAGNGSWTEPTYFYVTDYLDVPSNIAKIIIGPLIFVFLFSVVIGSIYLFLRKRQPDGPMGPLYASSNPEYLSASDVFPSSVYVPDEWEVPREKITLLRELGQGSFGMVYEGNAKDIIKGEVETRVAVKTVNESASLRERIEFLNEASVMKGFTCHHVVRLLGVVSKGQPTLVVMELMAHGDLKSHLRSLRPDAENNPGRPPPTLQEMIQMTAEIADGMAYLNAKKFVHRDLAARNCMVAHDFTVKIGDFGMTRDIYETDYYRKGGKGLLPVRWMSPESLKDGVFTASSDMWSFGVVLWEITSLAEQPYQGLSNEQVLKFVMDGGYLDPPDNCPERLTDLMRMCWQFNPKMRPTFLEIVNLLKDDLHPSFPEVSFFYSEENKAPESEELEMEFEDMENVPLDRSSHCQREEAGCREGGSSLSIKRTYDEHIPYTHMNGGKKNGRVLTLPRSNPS
Assay: not given
Type: cell membranes, Wistar, Liver, Membrane
Conditions: not given

SMILES	IC50
COc1cccc2c1C(=O)c1c(O)c3c(c(O)c1C2=O)C[C@@](O)(C(=O)CO)C[C@@H]3O[C@H]1C[C@H](N)[C@H](O)[C@H](C)O1 [DOXORUBICIN]	Not Active
Cc1ccc(S(=O)(=O)NC(=O)NN2CC3CCCC3C2)cc1 (stereo not given) [GLICLAZIDE]	Not Active
CC(C)Cc1ccc(C(C)C(=O)O)cc1 (stereo not given) [IBUPROFEN]	Not Active
COc1ccc2c(c1)c(CC(=O)O)c(C)n2C(=O)c1ccc(Cl)cc1 [INDOMETHACIN]	Not Active
CCc1c2c(nc3ccc(OC(=O)N4CCC(N5CCCCC5)CC4)cc13)-c1cc3c(c(=O)n1C2)COC(=O)[C@]3(O)CC [IRINOTECAN]	Not Active

Molecular target: T1, C-X-C chemokine receptor type 2 (Homo sapiens, UniProt P25025); also: in other assays of this panel Not Active means under 50% inhibition at 10 µM
T1 sequence (P25025 whole entry): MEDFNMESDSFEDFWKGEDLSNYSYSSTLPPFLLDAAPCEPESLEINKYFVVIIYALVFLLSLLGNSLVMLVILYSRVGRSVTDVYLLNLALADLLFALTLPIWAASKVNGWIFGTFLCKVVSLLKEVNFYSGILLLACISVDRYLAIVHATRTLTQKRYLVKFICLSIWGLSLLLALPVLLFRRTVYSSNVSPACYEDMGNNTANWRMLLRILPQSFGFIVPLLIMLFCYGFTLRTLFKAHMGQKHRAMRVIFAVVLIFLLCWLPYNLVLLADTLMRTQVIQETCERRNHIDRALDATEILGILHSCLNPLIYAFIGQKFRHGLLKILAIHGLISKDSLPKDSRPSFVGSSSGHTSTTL
Assay: not given
Type: cell membranes, Membrane
Conditions: cho-k1

SMILES	IC50
COc1cccc2c1C(=O)c1c(O)c3c(c(O)c1C2=O)C[C@@](O)(C(=O)CO)C[C@@H]3O[C@H]1C[C@H](N)[C@H](O)[C@H](C)O1 [DOXORUBICIN]	Not Active
Cc1ccc(S(=O)(=O)NC(=O)NN2CC3CCCC3C2)cc1 (stereo not given) [GLICLAZIDE]	Not Active
CC(C)Cc1ccc(C(C)C(=O)O)cc1 (stereo not given) [IBUPROFEN]	Not Active
COc1ccc2c(c1)c(CC(=O)O)c(C)n2C(=O)c1ccc(Cl)cc1 [INDOMETHACIN]	Not Active
CCc1c2c(nc3ccc(OC(=O)N4CCC(N5CCCCC5)CC4)cc13)-c1cc3c(c(=O)n1C2)COC(=O)[C@]3(O)CC [IRINOTECAN]	Not Active

Tested on: not listed separately
Assay: DRUGMATRIX: Phosphodiesterase PDE3 enzyme inhibition (substrate: [3H]cAMP + cAMP)
Type: tissue-based, Homo sapiens
Conditions: platelet; Not Active = under 50% inhibition at 10 µM

SMILES	IC50	Ki
COc1cccc2c1C(=O)c1c(O)c3c(c(O)c1C2=O)C[C@@](O)(C(=O)CO)C[C@@H]3O[C@H]1C[C@H](N)[C@H](O)[C@H](C)O1 [DOXORUBICIN]	Not Active	Not Active
Cc1ccc(S(=O)(=O)NC(=O)NN2CC3CCCC3C2)cc1 (stereo not given) [GLICLAZIDE]	Not Active	Not Active
CC(C)Cc1ccc(C(C)C(=O)O)cc1 (stereo not given) [IBUPROFEN]	Not Active	Not Active
COc1ccc2c(c1)c(CC(=O)O)c(C)n2C(=O)c1ccc(Cl)cc1 [INDOMETHACIN]	Not Active	Not Active
CCc1c2c(nc3ccc(OC(=O)N4CCC(N5CCCCC5)CC4)cc13)-c1cc3c(c(=O)n1C2)COC(=O)[C@]3(O)CC [IRINOTECAN]	Not Active	Not Active

Molecular target: T2, Estrogen receptor (Homo sapiens, UniProt P03372); also: in other assays of this panel Not Active means under 50% inhibition at 10 µM
T2 sequence (P03372 whole entry): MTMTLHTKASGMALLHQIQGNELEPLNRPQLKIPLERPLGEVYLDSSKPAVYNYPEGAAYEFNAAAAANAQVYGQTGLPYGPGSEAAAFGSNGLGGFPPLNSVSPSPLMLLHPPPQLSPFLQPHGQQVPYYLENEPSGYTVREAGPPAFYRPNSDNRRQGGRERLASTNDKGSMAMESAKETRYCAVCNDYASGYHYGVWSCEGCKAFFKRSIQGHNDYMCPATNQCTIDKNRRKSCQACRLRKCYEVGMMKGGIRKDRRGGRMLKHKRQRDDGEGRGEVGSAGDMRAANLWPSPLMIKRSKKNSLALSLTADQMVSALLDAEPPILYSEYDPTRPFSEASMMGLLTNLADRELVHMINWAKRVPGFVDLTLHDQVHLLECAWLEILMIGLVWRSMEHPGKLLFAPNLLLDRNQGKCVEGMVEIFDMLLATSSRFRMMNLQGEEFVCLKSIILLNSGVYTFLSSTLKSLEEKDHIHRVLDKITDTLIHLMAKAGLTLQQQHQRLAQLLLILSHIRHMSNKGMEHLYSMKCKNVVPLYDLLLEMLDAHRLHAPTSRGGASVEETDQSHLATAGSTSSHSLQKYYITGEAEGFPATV
Assay: not given
Conditions: sf9

SMILES	IC50
COc1cccc2c1C(=O)c1c(O)c3c(c(O)c1C2=O)C[C@@](O)(C(=O)CO)C[C@@H]3O[C@H]1C[C@H](N)[C@H](O)[C@H](C)O1 [DOXORUBICIN]	Not Active
Cc1ccc(S(=O)(=O)NC(=O)NN2CC3CCCC3C2)cc1 (stereo not given) [GLICLAZIDE]	Not Active
CC(C)Cc1ccc(C(C)C(=O)O)cc1 (stereo not given) [IBUPROFEN]	Not Active
COc1ccc2c(c1)c(CC(=O)O)c(C)n2C(=O)c1ccc(Cl)cc1 [INDOMETHACIN]	Not Active
CCc1c2c(nc3ccc(OC(=O)N4CCC(N5CCCCC5)CC4)cc13)-c1cc3c(c(=O)n1C2)COC(=O)[C@]3(O)CC [IRINOTECAN]	Not Active

Molecular target: Melanocortin receptor 4 (Homo sapiens, UniProt P32245); also: in other assays of this panel Not Active means under 50% inhibition at 10 µM
Sequence (P32245 whole entry): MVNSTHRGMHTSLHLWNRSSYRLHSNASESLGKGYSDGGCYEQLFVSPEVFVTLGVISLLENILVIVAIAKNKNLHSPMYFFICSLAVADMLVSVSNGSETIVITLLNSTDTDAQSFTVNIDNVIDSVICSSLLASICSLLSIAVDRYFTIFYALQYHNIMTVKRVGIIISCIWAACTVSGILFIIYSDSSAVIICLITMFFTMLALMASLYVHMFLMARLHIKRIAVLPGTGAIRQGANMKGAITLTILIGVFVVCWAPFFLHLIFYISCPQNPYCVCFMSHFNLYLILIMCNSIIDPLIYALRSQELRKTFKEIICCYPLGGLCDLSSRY
Assay: not given
Type: cell membranes, Membrane
Conditions: hek293

SMILES	IC50
COc1cccc2c1C(=O)c1c(O)c3c(c(O)c1C2=O)C[C@@](O)(C(=O)CO)C[C@@H]3O[C@H]1C[C@H](N)[C@H](O)[C@H](C)O1 [DOXORUBICIN]	Not Active
Cc1ccc(S(=O)(=O)NC(=O)NN2CC3CCCC3C2)cc1 (stereo not given) [GLICLAZIDE]	Not Active
CC(C)Cc1ccc(C(C)C(=O)O)cc1 (stereo not given) [IBUPROFEN]	Not Active
COc1ccc2c(c1)c(CC(=O)O)c(C)n2C(=O)c1ccc(Cl)cc1 [INDOMETHACIN]	Not Active
CCc1c2c(nc3ccc(OC(=O)N4CCC(N5CCCCC5)CC4)cc13)-c1cc3c(c(=O)n1C2)COC(=O)[C@]3(O)CC [IRINOTECAN]	Not Active

Tested on: not listed separately
Assay: DRUGMATRIX: GABAA, Chloride Channel, TBOB radioligand binding (ligand: [3H] TBOB)
Type: cell membranes, Rattus norvegicus, Wistar, Cerebral cortex, Membrane
Conditions: Not Active = under 50% inhibition at 10 µM

SMILES	IC50	Ki
COc1cccc2c1C(=O)c1c(O)c3c(c(O)c1C2=O)C[C@@](O)(C(=O)CO)C[C@@H]3O[C@H]1C[C@H](N)[C@H](O)[C@H](C)O1 [DOXORUBICIN]	Not Active	Not Active
Cc1ccc(S(=O)(=O)NC(=O)NN2CC3CCCC3C2)cc1 (stereo not given) [GLICLAZIDE]	Not Active	Not Active
CC(C)Cc1ccc(C(C)C(=O)O)cc1 (stereo not given) [IBUPROFEN]	Not Active	Not Active
COc1ccc2c(c1)c(CC(=O)O)c(C)n2C(=O)c1ccc(Cl)cc1 [INDOMETHACIN]	Not Active	Not Active
CCc1c2c(nc3ccc(OC(=O)N4CCC(N5CCCCC5)CC4)cc13)-c1cc3c(c(=O)n1C2)COC(=O)[C@]3(O)CC [IRINOTECAN]	Not Active	Not Active

Molecular target: Cytochrome P450 2E1 (Homo sapiens, UniProt P05181); also: in other assays of this panel Not Active means under 50% inhibition at 10 µM
Sequence (P05181 whole entry): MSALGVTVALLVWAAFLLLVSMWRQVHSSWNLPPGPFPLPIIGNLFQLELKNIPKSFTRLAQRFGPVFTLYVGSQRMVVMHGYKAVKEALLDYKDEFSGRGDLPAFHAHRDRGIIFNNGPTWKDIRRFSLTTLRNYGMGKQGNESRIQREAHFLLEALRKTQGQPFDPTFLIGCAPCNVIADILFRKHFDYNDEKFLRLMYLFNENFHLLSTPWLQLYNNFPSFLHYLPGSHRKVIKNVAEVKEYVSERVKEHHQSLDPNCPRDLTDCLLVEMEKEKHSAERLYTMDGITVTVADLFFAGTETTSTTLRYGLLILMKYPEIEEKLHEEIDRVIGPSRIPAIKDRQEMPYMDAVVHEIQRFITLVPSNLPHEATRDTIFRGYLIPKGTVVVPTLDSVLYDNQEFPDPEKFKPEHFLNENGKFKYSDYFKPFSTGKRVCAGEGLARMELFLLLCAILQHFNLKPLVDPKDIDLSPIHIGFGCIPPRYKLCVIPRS
Assay: not given
Conditions: bti-tn-5b1-4

SMILES	IC50	Ki
COc1cccc2c1C(=O)c1c(O)c3c(c(O)c1C2=O)C[C@@](O)(C(=O)CO)C[C@@H]3O[C@H]1C[C@H](N)[C@H](O)[C@H](C)O1 [DOXORUBICIN]	Not Active	Not Active
Cc1ccc(S(=O)(=O)NC(=O)NN2CC3CCCC3C2)cc1 (stereo not given) [GLICLAZIDE]	Not Active	Not Active
CC(C)Cc1ccc(C(C)C(=O)O)cc1 (stereo not given) [IBUPROFEN]	Not Active	Not Active
COc1ccc2c(c1)c(CC(=O)O)c(C)n2C(=O)c1ccc(Cl)cc1 [INDOMETHACIN]	Not Active	Not Active
CCc1c2c(nc3ccc(OC(=O)N4CCC(N5CCCCC5)CC4)cc13)-c1cc3c(c(=O)n1C2)COC(=O)[C@]3(O)CC [IRINOTECAN]	Not Active	Not Active

Molecular target: T3, Receptor-type tyrosine-protein phosphatase C (Homo sapiens, UniProt P08575)
T3 sequence (P08575 whole entry): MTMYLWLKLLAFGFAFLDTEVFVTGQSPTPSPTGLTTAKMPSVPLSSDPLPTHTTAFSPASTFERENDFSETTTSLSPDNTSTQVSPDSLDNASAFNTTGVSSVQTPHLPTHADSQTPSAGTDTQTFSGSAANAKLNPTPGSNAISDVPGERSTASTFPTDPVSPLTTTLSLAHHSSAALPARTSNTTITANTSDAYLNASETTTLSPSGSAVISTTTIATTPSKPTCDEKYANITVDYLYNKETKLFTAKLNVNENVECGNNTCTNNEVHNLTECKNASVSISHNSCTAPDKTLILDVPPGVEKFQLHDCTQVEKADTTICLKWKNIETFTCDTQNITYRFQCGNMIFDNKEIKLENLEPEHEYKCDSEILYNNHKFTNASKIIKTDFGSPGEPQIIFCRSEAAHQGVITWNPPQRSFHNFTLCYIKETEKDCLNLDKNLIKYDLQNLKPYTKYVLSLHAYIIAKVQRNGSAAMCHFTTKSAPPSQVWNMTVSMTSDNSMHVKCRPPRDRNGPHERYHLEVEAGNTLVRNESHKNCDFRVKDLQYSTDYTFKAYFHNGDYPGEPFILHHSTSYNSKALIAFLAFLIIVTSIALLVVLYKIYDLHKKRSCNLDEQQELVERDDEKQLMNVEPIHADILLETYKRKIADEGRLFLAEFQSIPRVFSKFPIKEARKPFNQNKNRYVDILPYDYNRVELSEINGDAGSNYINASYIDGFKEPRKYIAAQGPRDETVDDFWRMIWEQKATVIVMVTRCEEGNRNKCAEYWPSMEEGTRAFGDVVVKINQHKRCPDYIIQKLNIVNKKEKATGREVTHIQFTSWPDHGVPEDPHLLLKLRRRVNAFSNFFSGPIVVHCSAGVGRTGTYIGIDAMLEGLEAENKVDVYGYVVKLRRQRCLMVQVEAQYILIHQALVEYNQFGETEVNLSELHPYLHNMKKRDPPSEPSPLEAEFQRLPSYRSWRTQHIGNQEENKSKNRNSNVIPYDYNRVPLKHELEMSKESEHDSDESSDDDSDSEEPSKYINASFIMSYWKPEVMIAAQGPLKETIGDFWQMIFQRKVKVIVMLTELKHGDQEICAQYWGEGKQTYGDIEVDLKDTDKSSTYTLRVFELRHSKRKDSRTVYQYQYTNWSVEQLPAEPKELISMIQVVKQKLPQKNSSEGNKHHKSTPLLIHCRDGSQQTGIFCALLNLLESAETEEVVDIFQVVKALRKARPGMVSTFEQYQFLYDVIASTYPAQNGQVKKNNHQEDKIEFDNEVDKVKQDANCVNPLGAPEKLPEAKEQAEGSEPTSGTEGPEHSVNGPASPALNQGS
Assay: not given
Parameters: species or system Escherichia coli
Conditions: not given

SMILES	IC50
COc1cccc2c1C(=O)c1c(O)c3c(c(O)c1C2=O)C[C@@](O)(C(=O)CO)C[C@@H]3O[C@H]1C[C@H](N)[C@H](O)[C@H](C)O1 [DOXORUBICIN]	Not Active
Cc1ccc(S(=O)(=O)NC(=O)NN2CC3CCCC3C2)cc1 (stereo not given) [GLICLAZIDE]	Not Active
CC(C)Cc1ccc(C(C)C(=O)O)cc1 (stereo not given) [IBUPROFEN]	Not Active
COc1ccc2c(c1)c(CC(=O)O)c(C)n2C(=O)c1ccc(Cl)cc1 [INDOMETHACIN]	Not Active
CCc1c2c(nc3ccc(OC(=O)N4CCC(N5CCCCC5)CC4)cc13)-c1cc3c(c(=O)n1C2)COC(=O)[C@]3(O)CC [IRINOTECAN]	Not Active
